Read-outs that look alike come from different tables or passages of the source. Peptide text beside a SMILES is read from it. * marks the point of attachment. Cbz = O=C(OCc1ccccc1)*
What was measured:
SARS-CoV-2 [1] = tested on: SARS-CoV-2; set-up: method as in PMID 34726479; settings: Vero E6 cell culture; read-out: EC50 (virus replication); cited from earlier work
SARS-CoV-2 [2] = experiment: microbe, parasite or virus in culture; type: cell-based
SARS-CoV-2 [3] = tested on: SARS-CoV-2; set-up: method as in PMID 35287429; settings: read-out: EC50 (SARS-CoV-2 replication in cell culture); cited from earlier work
SARS-CoV-2 [4] = tested on: SARS-CoV-2; set-up: method as in PMID 33062953; settings: cited from earlier work
SARS-CoV-2 [5] = tested on: SARS-CoV-2; set-up: method as in PMID 32855413; settings: cited from earlier work
SARS-CoV-2 Mpro = settings: read-out: IC50 (Mpro); cited from earlier work
[6] = set-up: method as in PMID 32855413; settings: read-out: CC50 (cytotoxicity); cited from earlier work
SARS-CoV-2 [7] = settings: SARS-CoV-2-infected Vero E6/TMPRSS2 cells; cited from earlier work
[8] = Severe acute respiratory syndrome coronavirus 2, Vero C1008, Vero E6 cells, MOI 0.1, 96 h, MTT, read-out: EC50
[9] = Severe acute respiratory syndrome coronavirus 2, Vero C1008, 96 h

| SMILES | melting point | EC50 (SARS-CoV-2 [2]; [8]) | further results |
| --- | --- | --- | --- |
| CC(C)(C)[C@H](NC(=O)C(F)(F)F)C(=O)N1C[C@H]2[C@@H]([C@H]1C(=O)N[C@H](C#N)C[C@@H]1CCNC1=O)C2(C)C [PF-07321332, nirmatrelvir] |  |  | EC50 (SARS-CoV-2 [1]): 0.0853 µM |
| Cc1cc2c(cc1C)N(C(=O)COc1ccc3ccccc3c1)C(C)(C)c1ssc(=S)c1-2 [Compound 3a] | 189 to 190 °C | 0.51 ± 0.41 µM |  |
| CC1CCCCN1C(=S)Sc1c(-c2ccccc2)c2cc(Cl)ccc2[nH]c1=O (stereo not drawn) [Compound 6c, 6-chloro-2-oxo-4-phenyl-1,2-dihydroquinolin-3-yl 2-methylpiperidine-1-carboditioate] | 265 to 266 °C |  | EC50 (SARS-CoV-2 [2]; [9]): 22.4 ± 2.58 µM |
| CC(C)C[C@@H](C=O)NC(=O)[C@H](CC(C)C)NC(=O)[C@H](CC(C)C)NC(=O)OCc1ccccc1 [MG–132] (Cbz-Leu-Leu-Leu-aldehyde) |  |  | EC50 (SARS-CoV-2 [3]): 0.1 µM |
| Cn1nc(-c2ccc(C(F)(F)F)cc2)nc2c(=O)n(C)c(=O)nc1-2 [Valrycin B] |  |  | EC50 (virus replication in cell culture) (SARS-CoV-2 [4]): submicromolar |
| O=c1[nH]c2ccc(Cl)cc2c(-c2ccccc2)c1SC(=S)N1CCCCC1 [Compound 6b, 6-chloro-2-oxo-4-phenyl-1,2-dihydroquinolin-3-yl piperidine-1-carboditioate] |  |  | EC50 (SARS-CoV-2 [2]; [9]): 7.62 ± 1.84 µM |
| CC(NC(=O)C(Cc1ccccc1)NC(=O)OCc1ccccc1)C(=O)F (stereo not drawn) [Z-FA-FMK] |  |  | EC50 (virus replication in cell culture) (SARS-CoV-2 [4]): submicromolar |
| CC(C)C[C@H](NC(=O)OCc1ccccc1)C(=O)N[C@H](C=O)CC1CCNC1=O (stereo partly drawn) [GC–373] |  |  | EC50 (SARS-CoV-2 [5]): ~1 µM; IC50 (SARS-CoV-2 Mpro): […]; CC50 [6]: > 200 µM |
| COc1ccc2c(c1)-c1c(ssc1=S)C(C)(C)N2C(=O)COc1ccc2ccccc2c1 [Compound 3d] | 136 to 137 °C | 9.4 ± 1.67 µM |  |
| CC(C)C[C@H](NC(=O)OCc1ccccc1)C(=O)N[C@@H](CC1CCNC1=O)C(O)S(=O)(=O)O (stereo partly drawn) [GC–376] |  |  | EC50 (SARS-CoV-2 [5]): ~1 µM; IC50 (SARS-CoV-2 Mpro): ~0.3 µM; CC50 [6]: > 200 µM |
| CN1CCN(c2nc(Nc3cccc4ccccc34)nc(Nc3cccc4ccccc34)n2)CC1 [Compound 9c, 6-(4-methylpiperazin-1-yl)-N,N ^′ -di(naphthalen-1-yl)-1,3,5-triazine-2,4-amine] | 160 to 161 °C | 19.6 ± 2.94 µM |  |
| Cc1ccc2c(c1)N(C(=O)COc1ccc3ccccc3c1)C(C)(C)c1ssc(=S)c1-2 [Compound 3b] | > 144 °C | 1.16 ± 0.23 µM |  |
| c1ccc(Nc2nc(Nc3ccccc3)nc(N3CCCCCC3)n2)cc1 [Compound 9b, 6-(azepan-1-yl)-N,N’-diphenyl-1,3,5-triazine-2,4-diamine] | 160 to 161 °C | 1.04 ± 0.26 µM |  |
| Clc1ccc2nc(OCc3ccccc3Cl)c(N3CCOCC3)c(-c3ccccc3)c2c1 [Compound 6a, 6-chloro-2-[(2-chlorobenzyl)oxy]-3-(morpholin-4-yl)-4-phenylquinoline] |  | 4.77 ± 1.87 µM |  |
| CCC(CC)COC(=O)[C@H](C)N[P@](=O)(OC[C@H]1O[C@@](C#N)(c2ccc3c(N)ncnn23)[C@H](O)[C@@H]1O)Oc1ccccc1 [remdesivir, reference compound] |  | 2.94 ± 0.67 µM |  |
| c1ccc2cc(Nc3nc(Nc4ccc5ccccc5c4)nc(N4CCCCCC4)n3)ccc2c1 [Compound 9a, 6-(azepan-1-yl)-N,N ^′ -di(naphthalen-2-yl)-1,3,5-triazine-2,4-diamine] | 164 to 165 °C | 18.2 ± 4.2 µM |  |
| Cn1cnc(Cn2c(=O)[nH]/c(=N\c3cc4cn(C)nc4cc3Cl)n(Cc3cc(F)c(F)cc3F)c2=O)n1 [Compound S-217622] |  |  | EC50 (SARS-CoV-2 [7]): 0.37 µM |
| Cc1ccc2c(c1)-c1c(ssc1=S)C(C)(C)N2C(=O)COc1ccc2ccccc2c1 [Compound 3c] | 153 to 154 °C | 2.71 ± 0.91 µM |  |
